# According to US6410541B2, “Compounds useful for inhibition of farnesyl protein transferase” (Schering Corporation, priority 1997, dated 2002):
# Target: farnesyl protein transferase (UniProt Q02293+Q04631)
# Assay: FPT IC50 (inhibition of farnesyl protein transferase, in vitro enzyme assay)
# Type: biochemical
# Settings: at 140 nM
# Procedure: (§1) FPT IC50 (inhibition of farnesyl protein transferase, in vitro enzyme assay) and COS Cell IC50 (Cell-Based Assay) were determined following the assay procedures described in WO 95/10516, published Apr. 20. 1995. GGFT IC50 (inhibition of geranylgeranyl protein transferase, in vitro enzyme assay), Cell Mat Assay, and anti-tumor activity (in vivo anti-tumor studies) could be determined by the assay procedures described in WO 95/10516. The disclosure of WO 95/10516 is incorporated herein by reference thereto.
# In Table 10, “nM” represents nanomolar.
row,Compound,FPT inhibition at 140 nM (printed in FPT IC50 column)
1,COc1ccc2c(c1)CC(CC(=O)N1CCC([C@H]3c4ncc(Br)cc4CCc4cc(Cl)cc(Br)c43)CC1)C2=O (stereo partly shown) [Compound 17.0B],32% at 140

# Same assay, conditions: in vitro enzyme assay per WO 95/10516
row,Compound,IC50
1,O=C1CCC(CC(=O)N2CCC([C@H]3c4ncc(Br)cc4CCc4cc(Cl)cc(Br)c43)CC2)CC1 [Compound 13.0],2.2 nM
2,O=C(C1CCC(O)CC1)N1CCC(C2c3ncc(Br)cc3CCc3cc(Cl)cc(Br)c32)CC1 (stereo not shown) [Compound 70.0],11 nM
3,O=C(O)CON=C1CCC(CC(=O)N2CCC([C@H]3c4ncc(Br)cc4CCc4cc(Cl)cc(Br)c43)CC2)CC1 (stereo partly shown) [Compound 31.0],1.9 nM
4,CCOC(=O)C(=O)NC1CCC(C(=O)N2CCC(C3c4ncc(Br)cc4CCc4cc(Cl)cc(Br)c43)CC2)CC1 (stereo not shown) [Compound 39.0],23 nM
5,O=C1CCN(CC(=O)N2CCC([C@H]3c4ncc(Br)cc4CCc4cc(Cl)cc(Br)c43)CC2)CC1 [Compound 14.0],2.6 nM
6,NC1CCCC(C(=O)N2CCC(C3c4ncc(Br)cc4CCc4cc(Cl)cc(Br)c43)CC2)C1 (stereo not shown) [Compound 44.0],13.9 nM
7,CCOC(=O)C(=O)NC1CCCC(C(=O)N2CCC(C3c4ncc(Br)cc4CCc4cc(Cl)cc(Br)c43)CC2)C1 (stereo not shown) [Compound 46.0],34 nM
8,CON=C1CCN(CC(=O)N2CCC([C@H]3c4ncc(Br)cc4CCc4cc(Cl)cc(Br)c43)CC2)CC1 [Compound 27.0],6.7 nM
9,NC(=O)NN=C1CCC(CC(=O)N2CCC([C@H]3c4ncc(Br)cc4CCc4cc(Cl)cc(Br)c43)CC2)CC1 (stereo partly shown) [Compound 29.0],3 nM
10,CC(=O)NN=C1CCC(CC(=O)N2CCC([C@H]3c4ncc(Br)cc4CCc4cc(Cl)cc(Br)c43)CC2)CC1 (stereo partly shown) [Compound 30.0],4.3 nM
11,N[C@H]1CC[C@@H](C(=O)N2CCC([C@H]3c4ncc(Br)cc4CCc4cc(Cl)cc(Br)c43)CC2)CC1 [Compound 37.0],14 nM
12,C[C@]1(CCC(=O)N2CCC([C@H]3c4ncc(Br)cc4CCc4cc(Cl)cc(Br)c43)CC2)CCCCC1=O [Compound 20.0],7 nM
13,NC(=O)NC1CCCC(C(=O)N2CCC(C3c4ncc(Br)cc4CCc4cc(Cl)cc(Br)c43)CC2)C1 (stereo not shown) [Compound 45.0],17.6 nM
14,CC(C)(C)OC(=O)NC1CCC(C(=O)N2CCC(C3c4ncc(Br)cc4CCc4cc(Cl)cc(Br)c43)CC2)CC1 (stereo not shown) [Compound 36.0],67 nM
15,CC(=O)OC1CCC(C(=O)N2CCC(C3c4ncc(Br)cc4CCc4cc(Cl)cc(Br)c43)CC2)CC1 (stereo not shown) [Compound 69.0],7.8 nM
16,CC(C)(C)OC(=O)NC1CCCC(C(=O)N2CCC(C3c4ncc(Br)cc4CCc4cc(Cl)cc(Br)c43)CC2)C1 (stereo not shown) [Compound 43.0],150 nM

row,Compound,IC50
1,CON=C1CCC(CC(=O)N2CCC([C@H]3c4ncc(Br)cc4CCc4cc(Cl)cc(Br)c43)CC2)CC1 (stereo partly shown) [Compound 25.0],4.4 nM
2,CS(=O)(=O)NC1CCC(C(=O)N2CCC(C3c4ncc(Br)cc4CCc4cc(Cl)cc(Br)c43)CC2)CC1 (stereo not shown) [Compound 40.0],2.9 nM
3,NC(=O)C(=O)NC1CCCC(C(=O)N2CCC(C3c4ncc(Br)cc4CCc4cc(Cl)cc(Br)c43)CC2)C1 (stereo not shown) [Compound 49.1],15.6 nM
4,O=C(C1CCC(O)CC1)N1CCC(C2c3ncc(Br)cc3CCc3cc(Cl)cc(Br)c32)CC1 (stereo not shown) [Compound 68.0],> 160 nM
5,CC(C)(C)[Si](C)(C)OCCON=C1CCC(CC(=O)N2CCC([C@H]3c4ncc(Br)cc4CCc4cc(Cl)cc(Br)c43)CC2)CC1 (stereo partly shown) [Compound 32.0],97 nM
6,O=C(CN1CCC2(CC1)SCCS2)N1CCC([C@H]2c3ncc(Br)cc3CCc3cc(Cl)cc(Br)c32)CC1 [Compound 28.0],35 nM
7,NC(=O)NC1CCC(C(=O)N2CCC(C3c4ncc(Br)cc4CCc4cc(Cl)cc(Br)c43)CC2)CC1 (stereo not shown) [Compound 38.0],6.2 nM
8,O=C1CCCCC1CCC(=O)N1CCC([C@H]2c3ncc(Br)cc3CCc3cc(Cl)cc(Br)c32)CC1 (stereo partly shown) [Compound 19.0],10.7 nM
9,O=C1CCC(C(=O)N2CCC([C@H]3c4ncc(Br)cc4CCc4cc(Cl)cc(Br)c43)CC2)CC1 [Compound 33.0],5.1 nM
10,O=C(C=C1CCC2(CC1)OCCO2)N1CCC([C@H]2c3ncc(Br)cc3CCc3cc(Cl)cc(Br)c32)CC1 [Compound 21.0],10.7 nM
11,O=C(C1CCC2(CC1)OCCO2)N1CCC([C@H]2c3ncc(Br)cc3CCc3cc(Cl)cc(Br)c32)CC1 [Compound 34.0],10.7 nM
12,O=C1CCCCC1CC(=O)N1CCC([C@H]2c3ncc(Br)cc3CCc3cc(Cl)cc(Br)c32)CC1 (stereo partly shown) [Compound 18.0],5 nM
13,CON=C1CCC(C(=O)N2CCC([C@H]3c4ncc(Br)cc4CCc4cc(Cl)cc(Br)c43)CC2)CC1 (stereo partly shown) [Compound 35.0],8.2 nM
14,O=C(CN1CCC(=NO)CC1)N1CCC([C@H]2c3ncc(Br)cc3CCc3cc(Cl)cc(Br)c32)CC1 [Compound 26.0],6 nM
15,O=C(CC1CCC(=NO)CC1)N1CCC([C@H]2c3ncc(Br)cc3CCc3cc(Cl)cc(Br)c32)CC1 (stereo partly shown) [Compound 23.0],2.7 nM
16,O=C(CC1CCC2(CC1)OCCO2)N1CCC([C@H]2c3ncc(Br)cc3CCc3cc(Cl)cc(Br)c32)CC1 [Compound 24.0],4.7 nM

# Test system: COS Cell
# Assay: COS Cell IC50 (Cell-Based Assay)
# Settings: COS cells, cell-based assay per WO 95/10516
# Procedure: as §1
row,Compound,IC50
1,CC(=O)OC1CCC(C(=O)N2CCC(C3c4ncc(Br)cc4CCc4cc(Cl)cc(Br)c43)CC2)CC1 (stereo not shown) [Compound 69.0],30 nM
